Test results from US7737121B2, “Insulin secretion by anthocyanins and anthocyanidins” (Board of Trustees of Michigan State University, priority 2004, dated 2010).

How the values were obtained:
INS-1 832/13 cells = test: Insulin secretion by INS-1 832/13 pancreatic beta cells (static secretion, insulin by RIA, normalized to cellular protein); type: cell-based, rodent; conditions: for increase in insulin secretion: increase over untreated cells; for fold increase in insulin secretion: versus untreated cells
Description: Insulin Secretion Studies. INS-1 832/13 cells (kindly provided by Dr Christopher Newgard, Duke University, NC) (18) were routinely cultured in 5% CO2/air at 37° C. in RPMI-1640 medium containing 11.1 mM glucose and supplemented with 10% FBS (Fetal Bovine Serum), 10 mM HEPES, 100 U/ml penicillin, 100 μg/ml streptomycin, 4 mM Glutamine, 1 mM sodium pyruvate, and 50 μM 2-mercaptoethanol. Cells were passed weekly after trypsin-EDTA detachment. For static secretion studies, cells were plated on 24 well plates at a density of 0.64×10^6 cells per well and grown for 24 h. The cells were then cultured for an additional 24 h in RPMI-1640 containing 4 mM glucose and the supplements described above. Cells were then incubated twice for 30 min in Krebs Ringer Bicarbonate buffer (KRBB) containing 4 mM glucose and 0.1% BSA. Cells were rapidly washed with KRBB and incubated for 60 min KRBB containing 4 or 10 mM glucose with or without the indicated anthocyanins or anthocyanidins. The medium was then removed for determining insulin release. The cells were then washed twice with PBS and dissolved in 1 M NaOH. Cellular protein concentration was then determined by Lowry assay. Anthocyanins and anthocyanidins were dissolved in DMSO to obtain desired concentrations. Final concentration of DMSO was 0.1%. The insulin secreted into the medium by the cells was determined by radioimmuno assay and normalized to total cellular protein.
Radio Immuno Assay (RIA). The Kit for RIA was purchased from LINCO Research Inc. (St Charles, Mo.), and the assay was conducted according to the manufacturer's directions. Briefly, 0.1-10 ng of insulin standards (100 μl) were added to 12×75 mm test tubes. Similarly, samples (25 μl) from the insulin secretion studies were also added to the test tubes. To this, an aliquot (75 μl) of assay buffer was added. The ^125I labeled insulin (100 μl) was then added to each test tube. […] The tubes were then centrifuged and the radioactivity was measured using a gamma counter.
Lowry protein Assay. The amount of protein in the assay wells was determined by Lowry method (Francis, J. A., et al., Helv. Chim. Acta 87 317-326 (2004)). The Lowry assay solution was prepared by combining the Lowry solution, CuSO4.5H2O (1%), and sodium tartarate (1%). Briefly, the protein sample (100 μl) and Lowry mixture (1 mL) were mixed in a test tube (12×75). The Folin-Ciolatues reagent (100 μl) was added to these tubes, mixed, and incubated for 30 min at room temperature. The optical density of resulting solutions was read at 700 nm using a UV spectrophotometer.

[1] = mice; cited from earlier work
[2] = 4 mM glucose, 50 μg/mL compound
[3] = 10 mM glucose, 50 μg/mL compound

| SMILES | insulin secreted (dose dependent assay) (INS-1 832/13 cells; 4 mM glucose, 5 μg/mL compound, untreated cells 33) | effect on insulin secretion, result in words (INS-1 832/13 cells; [2]) | increase in insulin secretion (INS-1 832/13 cells; 4 mM glucose, 50 μg/mL compound, 60 min) | fold increase in insulin secretion (INS-1 832/13 cells; [2]) [fold] | insulin secretion (dose dependent assay), result in words (INS-1 832/13 cells; 4 mM glucose, 10, 50, 100 and 250 μg/mL compound) | effect on insulin secretion, result in words (INS-1 832/13 cells; [3]) | effect on insulin secretion, result in words (INS-1 832/13 cells; 4 and 10 mM glucose) | high fat diet induced obesity [1] | insulin secreted (INS-1 832/13 cells; 4 mM glucose, 50 μg/mL compound, total secreted by treated cells) | fold increase in insulin secretion (INS-1 832/13 cells; [3]) [fold] | effect on insulin secretion, result in words (INS-1 832/13 cells; 4 and 10 mM glucose, listed as delphinidin-3-glucoside) | increase in insulin secretion (INS-1 832/13 cells; [3]) |
| --- | --- | --- | --- | --- | --- | --- | --- | --- | --- | --- | --- | --- |
| OC[C@H]1O[C@@H](Oc2cc3c(O)cc(O)cc3[o+]c2-c2ccc(O)c(O)c2)[C@H](O)[C@@H](O)[C@@H]1O [Compound 1, cyanidin-3-glucoside] | 46 ng of insulin per mg protein | less active than delphinidin-3-glucoside | 9 ng/mg of protein | 1.3 | no significant difference | more active | most effective insulin secretagogues | reduced | – | – | – | – |
| OC[C@H]1O[C@@H](Oc2cc3c(O)cc(O)cc3[o+]c2-c2cc(O)c(O)c(O)c2)[C@H](O)[C@@H](O)[C@@H]1O [Compound 2, delphinidin-3-glucoside] | – | – | – | 1.8 | – | – | most effective insulin secretagogues | – | 49 ng/mg of protein | 1.4 | significantly induced the insulin secretion | – |
| OC[C@H]1O[C@@H](Oc2cc3c(O)cc(O)cc3[o+]c2-c2ccc(O)c(O)c2)[C@H](O)[C@@H](O)[C@H]1O [Compound 3, cyanidin-3-galactoside] | – | did not increase the insulin secretion | – | – | – | – | significant increase in insulin secretion | – | – | 1.2 | – | 17 ng/mg of protein |
| OCC1OC(Oc2cc3c(O)cc(O)cc3[o+]c2-c2ccc(O)cc2)C(O)C(O)C1O (stereo not shown) [Compound 4, pelargonidin-3-galactoside] | – | did not increase the insulin secretion | – | – | – | – | did not induce insulin secretion | – | – | – | – | – |
